Laboratory results as given in patent publication US20100160454A1, “ANTIMICROBIAL AGENTS, COMPOSITIONS AND PRODUCTS CONTAINING THE SAME, AND METHODS OF USING THE COMPOSITIONS AND PRODUCTS” (Eastman Chemical Company, priority 2008, published 2010).

How the values were obtained:
Assay in all cases: Microbiological challenge testing in BPW broth, graded subculture counts
Format in all cases: cell-based
[1] = system: Bacillus subtilis Wild type
Protocol: (§1) The microorganisms in the table below were used in challenge tests. They were either ATCC (American Type Culture Collection) or “wild type” as indicated. Wild type organisms were problematic organisms previously isolated from chemical products.
(§2) All of the microorganisms were grown in Tryptose Soy Broth (TSB), DIFCO™ available from Becton, Dickinson and Company, containing 1% dextrose. Candida albicans and Aspergillus niger, were incubated at 22° C.+/−2° C. for at least 96 hours. All bacteria were incubated at 35° C.+/−2° C. in a humidified incubator for at least 96 hours.
(§3) The following procedure was followed to determine the amount of each challenge material (inoculum broth) needed to produce a 10^8 CFU/mL challenge, which is equivalent to a final test-sample microbial concentration of 10^5 to 10^6 CFU/mL (CFU=colony forming units).
(§4) Using a sterile pipette, 1 mL of the growth from each TSB culture was transferred into tubes of 9 mL buffered water (pH 7.2 phosphate buffer) and mixed thoroughly. This was repeated to make serial 1:10 dilutions. Then, 0.1 mL of each sample and dilution was inoculated onto agar plates to produce the equivalent of a further 1:10 dilution. (C. albicans and A. niger were inoculated onto SABD and bacteria were inoculated onto Plate Count Agar (PCA), DIFCO™ available from Becton, Dickinson and Company.) (The normal volume plated for most samples was 0.1 mL. Some samples that could be very low in micro-organisms (high dilutions) were plated using 0.5 mL of inoculum, in order to produce reproducible counts.) The samples were distributed on the plates using the spread-plate technique. The spread-plate technique is carried out by spreading the sample over the entire plate surface using a sterile spreading rod while rotating the plate with a rotary auto-plater. After the inoculum was absorbed completely by the agar, each plate was inverted and incubated (fungi at 22° C.+/−2° C. and bacteria at 35° C.+/−2° C.).
(§5) After incubation for at least 48 hours, colonies that had developed on the agar plates were counted (CFU) and recorded with the corresponding dilution. If counting had to be delayed temporarily, plates were refrigerated, preferably no more than 24 hours, until they could be counted. The number of CFU/mL was determined by multiplying the plate count by the dilution factor of the plate counted.
(§6) Turbidity in Nepholemetric Turbidity Units (NTU) was measured for each serial dilution using the HF-Micro 100 Model Turbidimeter. For each microorganism, the plate counts were compared to the turbidity readings.
(§7) Control substrates (“broth alone”) were prepared for each microorganism separately in triplicate by adding 13.5 mL of Buffered Peptone Water broth (BPW) containing 1% dextrose to each 20-mL glass tube, then adding 1.5 mL challenge material to produce a final concentration at time zero of 10^5 to 10^6 CFU/mL and a total volume of 15 mL.
(§8) Test sample substrates were prepared containing each test material listed below at the concentrations shown for challenge testing with each microorganism separately. Sample substrates were prepared in triplicate, except the substrates containing butoxyethanol which were prepared in duplicate. Substrates were prepared by adding BPW containing 1% dextrose to each 20-mL glass tube, then adding the test material in the amount appropriate to achieve the desired weight/volume percent and to achieve a total volume of BPW plus dextrose plus test material of 13.5 mL. Then 1.5 mL challenge material was added to produce a final concentration at time zero of 10^5 to 10^6 CFU/mL and a total test sample substrate volume of 15 mL.

[2] = system: Escherichia coli ATCC 25922; settings: E. Coli
Protocol: as §1, §2, §3, §4, §5, §6, §7, §8

[3] = system: Streptococcus mutans ATCC 35668
Protocol: as §1, §2, §3, §4, §5, §6, §7, §8

[4] = system: Burkholderia cepacia Wild type; settings: B. cepacia
Protocol: as §1, §2, §3, §4, §5, §6, §7, §8

Aeromonas sp. Wild type = system: Aeromonas sp. Wild type
Protocol: as §1, §2, §3, §4, §5, §6, §7, §8

[5] = system: Proteus vulgaris Wild type
Protocol: as §1, §2, §3, §4, §5, §6, §7, §8

[6] = system: Staphylococcus aureus ATCC 25923; settings: S. aureus
Protocol: as §1, §2, §3, §4, §5, §6, §7, §8

SMILES: OCC1CCCCC1CO (stereo not drawn) [1,2-CHDM, 1,2-cyclohexanedimethanol]
- B. subtillis growth grade, 3 day ([1]; 0.5% weight/volume): 4 (1000 to 10,000 colonies countable (thus 10,000 CFU/mL to 100,000 CFU/mL))
- B. subtillis growth grade, 14 day ([1]; 0.5% weight/volume): 3 (100 to 1000 colonies (thus 1000 to 10,000 CFU/mL))
- B. subtillis growth grade, 30 day ([1]; 0.5% weight/volume): 4 (1000 to 10,000 colonies countable (thus 10,000 CFU/mL to 100,000 CFU/mL))
- B. subtillis growth grade, 3 day ([1]; 1.25% weight/volume): 2 (52 to 100 colonies counted (thus 520 to 1000 CFU/mL))
- B. subtillis growth grade, 14 day ([1]; 1.25% weight/volume): 1 (0 to 51 colonies counted (thus 10 to 510 CFU/mL based on 0.1-mL sample))
- B. subtillis growth grade, 30 day ([1]; 1.25% weight/volume): 1 (0 to 51 colonies counted (thus 10 to 510 CFU/mL based on 0.1-mL sample))
- B. subtillis growth grade, 3 day ([1]; 2.5% weight/volume): 0
- B. subtillis growth grade, 14 day ([1]; 2.5% weight/volume): 0
- B. subtillis growth grade, 30 day ([1]; 2.5% weight/volume): 0
- B. subtillis growth grade, 3 day ([1]; 5.0% weight/volume): 0
- B. subtillis growth grade, 14 day ([1]; 5.0% weight/volume): 0
- B. subtillis growth grade, 30 day ([1]; 5.0% weight/volume): 0
- Grade ([2]; 0.5% (wt/vol), 3 day): 5 (More than 10,000 colonies estimated (thus more than 100,000 CFU/mL))
- Grade ([2]; 0.5% (wt/vol), 14 day): 4 (1000 to 10,000 colonies countable (thus 10,000 CFU/mL to 100,000 CFU/mL))
- Grade ([2]; 0.5% (wt/vol), 30 day): 4 (1000 to 10,000 colonies countable (thus 10,000 CFU/mL to 100,000 CFU/mL))
- Grade ([2]; 1.25% (wt/vol), 3 day): 4 (1000 to 10,000 colonies countable (thus 10,000 CFU/mL to 100,000 CFU/mL))
- Grade ([2]; 1.25% (wt/vol), 14 day): 2 (52 to 100 colonies counted (thus 520 to 1000 CFU/mL))
- Grade ([2]; 1.25% (wt/vol), 30 day): 3 (100 to 1000 colonies (thus 1000 to 10,000 CFU/mL))
- Grade ([2]; 2.5% (wt/vol), 3 day): 2 (52 to 100 colonies counted (thus 520 to 1000 CFU/mL))
- Grade ([2]; 2.5% (wt/vol), 14 day): 0
- Grade ([2]; 2.5% (wt/vol), 30 day): 0
- Grade ([2]; 5.0% (wt/vol), 3 day): 0
- Grade ([2]; 5.0% (wt/vol), 14 day): 0
- Grade ([2]; 5.0% (wt/vol), 30 day): 0
- S. mutans growth grade, 3 day ([3]; 0.5% weight/volume): 4 (1000 to 10,000 colonies countable (thus 10,000 CFU/mL to 100,000 CFU/mL))
- S. mutans growth grade, 13 day ([3]; 0.5% weight/volume): 4 (1000 to 10,000 colonies countable (thus 10,000 CFU/mL to 100,000 CFU/mL))
- S. mutans growth grade, 30 day ([3]; 0.5% weight/volume): 4 (1000 to 10,000 colonies countable (thus 10,000 CFU/mL to 100,000 CFU/mL))
- S. mutans growth grade, 3 day ([3]; 1.25% weight/volume): 2 (52 to 100 colonies counted (thus 520 to 1000 CFU/mL))
- S. mutans growth grade, 13 day ([3]; 1.25% weight/volume): 0
- S. mutans growth grade, 30 day ([3]; 1.25% weight/volume): 0
- S. mutans growth grade, 3 day ([3]; 2.5% weight/volume): 1 (0 to 51 colonies counted (thus 10 to 510 CFU/mL based on 0.1-mL sample))
- S. mutans growth grade, 13 day ([3]; 2.5% weight/volume): 0
- S. mutans growth grade, 30 day ([3]; 2.5% weight/volume): 0
- S. mutans growth grade, 3 day ([3]; 5.0% weight/volume): 0
- S. mutans growth grade, 13 day ([3]; 5.0% weight/volume): 0
- S. mutans growth grade, 30 day ([3]; 5.0% weight/volume): 0
- Grade ([4]; 0.5% (wt/vol), 3 day): 4 (1000 to 10,000 colonies countable (thus 10,000 CFU/mL to 100,000 CFU/mL))
- Grade ([4]; 0.5% (wt/vol), 14 day): 4 (1000 to 10,000 colonies countable (thus 10,000 CFU/mL to 100,000 CFU/mL))
- Grade ([4]; 0.5% (wt/vol), 30 day): 4 (1000 to 10,000 colonies countable (thus 10,000 CFU/mL to 100,000 CFU/mL))
- Grade ([4]; 1.25% (wt/vol), 3 day): 1 (0 to 51 colonies counted (thus 10 to 510 CFU/mL based on 0.1-mL sample))
- Grade ([4]; 1.25% (wt/vol), 14 day): 0
- Grade ([4]; 1.25% (wt/vol), 30 day): 0
- Grade ([4]; 2.5% (wt/vol), 3 day): 0
- Grade ([4]; 2.5% (wt/vol), 14 day): 0
- Grade ([4]; 2.5% (wt/vol), 30 day): 0
- Grade ([4]; 5.0% (wt/vol), 3 day): 0
- Grade ([4]; 5.0% (wt/vol), 14 day): 0
- Grade ([4]; 5.0% (wt/vol), 30 day): 0
- Aeromonas sp growth grade, 3 day (Aeromonas sp. Wild type; 0.5% weight/volume): 5 (More than 10,000 colonies estimated (thus more than 100,000 CFU/mL))
- Aeromonas sp growth grade, 14 day (Aeromonas sp. Wild type; 0.5% weight/volume): 4 (1000 to 10,000 colonies countable (thus 10,000 CFU/mL to 100,000 CFU/mL))
- Aeromonas sp growth grade, 30 day (Aeromonas sp. Wild type; 0.5% weight/volume): 4 (1000 to 10,000 colonies countable (thus 10,000 CFU/mL to 100,000 CFU/mL))
- Aeromonas sp growth grade, 3 day (Aeromonas sp. Wild type; 1.25% weight/volume): 3 (100 to 1000 colonies (thus 1000 to 10,000 CFU/mL))
- Aeromonas sp growth grade, 14 day (Aeromonas sp. Wild type; 1.25% weight/volume): 2 (52 to 100 colonies counted (thus 520 to 1000 CFU/mL))
- Aeromonas sp growth grade, 30 day (Aeromonas sp. Wild type; 1.25% weight/volume): 1 (0 to 51 colonies counted (thus 10 to 510 CFU/mL based on 0.1-mL sample))
- Aeromonas sp growth grade, 3 day (Aeromonas sp. Wild type; 2.5% weight/volume): 0
- Aeromonas sp growth grade, 14 day (Aeromonas sp. Wild type; 2.5% weight/volume): 1 (0 to 51 colonies counted (thus 10 to 510 CFU/mL based on 0.1-mL sample))
- Aeromonas sp growth grade, 30 day (Aeromonas sp. Wild type; 2.5% weight/volume): 0
- Aeromonas sp growth grade, 3 day (Aeromonas sp. Wild type; 5.0% weight/volume): 0
- Aeromonas sp growth grade, 14 day (Aeromonas sp. Wild type; 5.0% weight/volume): 0
- Aeromonas sp growth grade, 30 day (Aeromonas sp. Wild type; 5.0% weight/volume): 0
- P. vulgaris growth grade, 3 day ([5]; 0.5% weight/volume): 4 (1000 to 10,000 colonies countable (thus 10,000 CFU/mL to 100,000 CFU/mL))
- P. vulgaris growth grade, 13 day ([5]; 0.5% weight/volume): 4 (1000 to 10,000 colonies countable (thus 10,000 CFU/mL to 100,000 CFU/mL))
- P. vulgaris growth grade, 30 day ([5]; 0.5% weight/volume): 4 (1000 to 10,000 colonies countable (thus 10,000 CFU/mL to 100,000 CFU/mL))
- P. vulgaris growth grade, 3 day ([5]; 1.25% weight/volume): 2.3
- P. vulgaris growth grade, 13 day ([5]; 1.25% weight/volume): 1 (0 to 51 colonies counted (thus 10 to 510 CFU/mL based on 0.1-mL sample))
- P. vulgaris growth grade, 30 day ([5]; 1.25% weight/volume): 0
- P. vulgaris growth grade, 3 day ([5]; 2.5% weight/volume): 1 (0 to 51 colonies counted (thus 10 to 510 CFU/mL based on 0.1-mL sample))
- P. vulgaris growth grade, 13 day ([5]; 2.5% weight/volume): 0
- P. vulgaris growth grade, 30 day ([5]; 2.5% weight/volume): 0
- P. vulgaris growth grade, 3 day ([5]; 5.0% weight/volume): 0
- P. vulgaris growth grade, 13 day ([5]; 5.0% weight/volume): 0
- P. vulgaris growth grade, 30 day ([5]; 5.0% weight/volume): 0
- Grade ([6]; 0.5% (wt/vol), 3 day): 4 (1000 to 10,000 colonies countable (thus 10,000 CFU/mL to 100,000 CFU/mL))
- Grade ([6]; 0.5% (wt/vol), 14 day): 4 (1000 to 10,000 colonies countable (thus 10,000 CFU/mL to 100,000 CFU/mL))
- Grade ([6]; 0.5% (wt/vol), 30 day): 4 (1000 to 10,000 colonies countable (thus 10,000 CFU/mL to 100,000 CFU/mL))
- Grade ([6]; 1.25% (wt/vol), 3 day): 3.3
- Grade ([6]; 1.25% (wt/vol), 14 day): 2.7
- Grade ([6]; 1.25% (wt/vol), 30 day): 4 (1000 to 10,000 colonies countable (thus 10,000 CFU/mL to 100,000 CFU/mL))
- Grade ([6]; 2.5% (wt/vol), 3 day): 0
- Grade ([6]; 2.5% (wt/vol), 14 day): 0
- Grade ([6]; 2.5% (wt/vol), 30 day): 0
- Grade ([6]; 5.0% (wt/vol), 3 day): 0
- Grade ([6]; 5.0% (wt/vol), 14 day): 0
- Grade ([6]; 5.0% (wt/vol), 30 day): 0
